# Measurements: patent US9079895B2, “Morpholino compounds, uses and methods” (University of Dundee, priority 2012, dated 2015)
# Experiments:
# Details in all cases: average of at least two experiments
# dopamine D5 receptor = dopamine D5 receptor (Homo sapiens (Human), UniProt P21918); experiment: Secondary radioligand binding assay, D5; parameters: key to Ki D5: “—” indicates that a binding interaction was not detected
# Protocol: (§1) 1. Secondary Radioligand Binding Assays
# (§2) The detailed experimental protocols for the radioligand and functional receptor assays are available on the NIMH PDSP website at http://pdsp.med.unc.edu/UNC-CH %20Protocol %20Book.pdf.
# (§3) Radioligand is diluted to five times the assay concentration (see Table 18) in Standard Binding Buffer. Typically, the assay concentration of radioligand is a value between one half the KD and the KD of a particular radioligand at its target. 50 μl aliquots of radioligand are dispensed into the wells of a 96-well plate containing 100 μl of Standard Binding Buffer. Then, duplicate 50 μl aliquots of the test and reference compound dilutions are added.
# (§4) The 250 μl reactions are incubated at room temperature and shielded from light (to prevent photolysis of light-sensitive ligands) for 1.5 hours, then harvested by rapid filtration onto Whatman GF/B glass fiber filters pre-soaked with 0.3% polyethyleneimine using a 96-well Brandel harverster. Four rapid 500 μl washes are performed with chilled Standard Binding Buffer to reduce non-specific binding. Filters are placed in 6 ml scintillation tubes and allowed to dry overnight. The next day, 4 ml of EcoScint scintillation cocktail (National Diagnostics) are added to each tube. The tubes are capped, labeled, and counted by liquid scintillation counting. […] The filter mats are dried, then scintillant is melted onto the filters and the radioactivity retained on the filters is counted in a Microbeta scintillation counter.
# (§5) Raw data (dpm) representing total radioligand binding (i.e. specific+non-specific binding) are plotted as a function of the logarithm of the molar concentration of the competitor (i.e. test or reference compound).
# (§6) B. Dopamine Receptors: D1, D2, D3, D4, D5 Assay Buffers: Dopamine Binding Buffer (50 mM NaCl, 50 mM HEPES-HCl, 5 mM MgCl2, 0.5 mM EDTA, pH 7.4) Membrane Fraction Source: Transiently or stably transfected cell lines (e.g. HEK293, COS, CHO, NIH3T3)
# (§7) The method is carried out in the manner described for the serotonin receptor assay above. Eleven dilutions (5× assay concentration) of the test and reference (see Table 19) compounds are prepared in Dopamine Binding Buffer by serial dilution, as previously described. Radioligand is diluted to five times the assay concentration (see Table 20) in Dopamine Binding Buffer.
# dopamine D2 receptor = dopamine D2 receptor (Homo sapiens (Human), UniProt P14416); experiment: Secondary radioligand binding assay, D2; parameters: key to Ki D2: “—” indicates that a binding interaction was not detected
# dopamine D2 receptor, sequence (P14416 whole entry, species assumed): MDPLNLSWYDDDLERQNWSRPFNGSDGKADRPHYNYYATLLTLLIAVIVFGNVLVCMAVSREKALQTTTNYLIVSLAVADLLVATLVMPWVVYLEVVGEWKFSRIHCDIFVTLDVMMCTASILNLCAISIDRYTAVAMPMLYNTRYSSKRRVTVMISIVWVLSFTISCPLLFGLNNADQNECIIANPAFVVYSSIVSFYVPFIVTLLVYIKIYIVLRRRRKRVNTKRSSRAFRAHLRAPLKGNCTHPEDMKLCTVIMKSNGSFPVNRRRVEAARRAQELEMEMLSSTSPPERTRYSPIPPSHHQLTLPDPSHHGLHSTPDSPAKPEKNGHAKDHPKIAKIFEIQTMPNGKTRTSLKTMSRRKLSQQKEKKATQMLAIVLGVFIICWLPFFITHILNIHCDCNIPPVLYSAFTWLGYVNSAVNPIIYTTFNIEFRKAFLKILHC
# Protocol: as §1, §2, §3, §4, §5, §6, §7
# 5HT2b receptor = 5HT2b receptor (Homo sapiens (Human), UniProt P41595); experiment: Secondary radioligand binding assay, 5HT2b; parameters: key to Ki 5HT2b: “—” indicates that a binding interaction was not detected;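 note: competition binding against a radioligand on membranes from transfected cell lines, 1.5 h incubation at room temperature, filter-retained radioactivity counted by liquid scintillation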
# Protocol: (§9) Assay Buffer: Standard Binding Buffer (50 mM Tris-HCl, 10 mM MgCl2, 1 mM EDTA, pH 7.4)
# (§10) Membrane Fraction Source: Transiently or stably transfected cell lines (e.g., HEK293, COS, CHO, NIH3T3)
# dopamine D1 receptor = dopamine D1 receptor (Homo sapiens (Human), UniProt P21728); experiment: Secondary radioligand binding assay, D1; parameters: key to Ki D1: “—” indicates that a binding interaction was not detected
# dopamine D1 receptor, sequence (P21728 whole entry): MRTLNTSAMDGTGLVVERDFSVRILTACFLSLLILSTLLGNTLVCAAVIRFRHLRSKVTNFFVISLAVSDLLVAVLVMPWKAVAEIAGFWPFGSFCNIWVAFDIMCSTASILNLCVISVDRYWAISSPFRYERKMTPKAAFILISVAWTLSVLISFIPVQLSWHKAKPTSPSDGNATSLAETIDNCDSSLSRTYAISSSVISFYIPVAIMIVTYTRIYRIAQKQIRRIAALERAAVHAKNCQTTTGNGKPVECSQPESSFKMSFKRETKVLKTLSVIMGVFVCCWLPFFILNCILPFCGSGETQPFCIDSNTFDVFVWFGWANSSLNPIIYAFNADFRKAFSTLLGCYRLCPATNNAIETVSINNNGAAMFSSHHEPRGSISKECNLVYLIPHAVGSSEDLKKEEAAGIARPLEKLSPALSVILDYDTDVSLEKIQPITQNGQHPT
# Protocol: as §1, §2, §3, §4, §5, §6, §7
# 5HT3 receptor = 5HT3 receptor (Homo sapiens (Human), UniProt P46098); experiment: Secondary radioligand binding assay, 5HT3; parameters: key: “—” indicates that a binding interaction was not detected;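 note: radioligand competition binding on membranes from transfected cell lines, 1.5 h incubation at room temperature, filter-retained radioactivity measured by liquid scintillation counting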
# 5HT3 receptor, sequence (P46098 24-478): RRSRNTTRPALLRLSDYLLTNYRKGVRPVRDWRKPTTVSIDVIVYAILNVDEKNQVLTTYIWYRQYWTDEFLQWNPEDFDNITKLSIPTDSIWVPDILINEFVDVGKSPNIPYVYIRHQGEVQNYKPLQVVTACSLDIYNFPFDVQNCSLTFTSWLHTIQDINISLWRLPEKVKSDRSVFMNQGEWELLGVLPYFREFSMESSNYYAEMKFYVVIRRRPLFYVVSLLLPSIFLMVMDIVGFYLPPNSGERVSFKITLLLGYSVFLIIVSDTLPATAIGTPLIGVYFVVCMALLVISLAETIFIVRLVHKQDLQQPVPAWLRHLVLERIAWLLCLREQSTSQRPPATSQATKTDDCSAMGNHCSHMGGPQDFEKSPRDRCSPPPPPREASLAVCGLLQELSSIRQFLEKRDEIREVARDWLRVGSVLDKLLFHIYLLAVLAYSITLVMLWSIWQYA
# Protocol: as §9, §10
# [1] = target: Alpha1B adrenergic receptor (Homo sapiens (Human), UniProt P35368); experiment: Secondary radioligand binding assay, Alpha1B; parameters: key to Ki Alpha1B: “—” indicates that a binding interaction was not detected
# Alpha1B adrenergic receptor, sequence (P35368 whole entry): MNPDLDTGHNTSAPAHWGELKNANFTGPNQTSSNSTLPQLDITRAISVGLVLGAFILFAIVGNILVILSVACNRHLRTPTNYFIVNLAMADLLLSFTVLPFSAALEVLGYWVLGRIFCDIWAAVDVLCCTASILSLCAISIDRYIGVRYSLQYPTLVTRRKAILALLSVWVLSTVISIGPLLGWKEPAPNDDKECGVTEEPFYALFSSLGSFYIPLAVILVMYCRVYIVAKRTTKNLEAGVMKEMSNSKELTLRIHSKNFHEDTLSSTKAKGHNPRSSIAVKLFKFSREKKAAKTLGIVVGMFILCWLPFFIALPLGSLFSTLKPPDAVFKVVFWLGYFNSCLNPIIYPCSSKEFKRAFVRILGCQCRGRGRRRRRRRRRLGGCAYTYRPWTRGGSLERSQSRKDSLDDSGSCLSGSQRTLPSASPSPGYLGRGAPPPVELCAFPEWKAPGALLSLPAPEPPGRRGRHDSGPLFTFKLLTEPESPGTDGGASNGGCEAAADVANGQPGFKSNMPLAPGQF
# From the text: (§8) 1. Secondary Radioligand Binding Assays The detailed experimental protocols for the radioligand and functional receptor assays are available on the NIMH PDSP website at http://pdsp.med.unc.edu/UNC-CH %20Protocol %20Book.pdf. Raw data (dpm) representing total radioligand binding (i.e. specific+non-specific binding) are plotted as a function of the logarithm of the molar concentration of the competitor (i.e. test or reference compound). […] C. Adrenergic Receptors: α1A, α1B, α2A, α2B, α2C, β1, β2, β3 Assay Buffers: For α1 receptors, α1 Binding Buffer (20 mM Tris-HCl, 145 mM NaCl, pH 7.4); for α2 receptors, α2 Binding Buffer (50 mM Tris-HCl, 5 mM MgCl2, pH 7.7); for β receptors, β Binding Buffer (50 mM Tris-HCl, 3 mM MnCl2, pH 7.7) Membrane Fraction Source: Transiently or stably transfected cell lines (e.g. HEK293, COS, CHO, NIH3T3) Protocol adapted from Arango et al. […] (1990), Gen. Psychiatry, 47: 1038-1047. The method is carried out in the manner described for the serotonin receptor assay above, except where described below. Eleven dilutions (5× assay concentration) of the test and reference (see Table 20) compounds are prepared in the appropriate buffer by serial dilution, as previously described. Radioligand is diluted to five times the assay concentration (see Table 21) in the appropriate buffer. […] Four rapid 500-μl washes are performed with chilled distilled water (for α1 and β receptors) or 0.1% polyethyleneimine (for α2 receptors) to reduce non-specific binding. Filters are placed in 6 ml scintillation tubes and allowed to dry overnight and the samples are treated to obtain data as described above. [table]
# dopamine D3 receptor = dopamine D3 receptor (Homo sapiens (Human), UniProt P35462); experiment: Secondary radioligand binding assay, D3; parameters: key to Ki D3: “—” indicates that a binding interaction was not detected
# dopamine D3 receptor, sequence (P35462 whole entry, species assumed): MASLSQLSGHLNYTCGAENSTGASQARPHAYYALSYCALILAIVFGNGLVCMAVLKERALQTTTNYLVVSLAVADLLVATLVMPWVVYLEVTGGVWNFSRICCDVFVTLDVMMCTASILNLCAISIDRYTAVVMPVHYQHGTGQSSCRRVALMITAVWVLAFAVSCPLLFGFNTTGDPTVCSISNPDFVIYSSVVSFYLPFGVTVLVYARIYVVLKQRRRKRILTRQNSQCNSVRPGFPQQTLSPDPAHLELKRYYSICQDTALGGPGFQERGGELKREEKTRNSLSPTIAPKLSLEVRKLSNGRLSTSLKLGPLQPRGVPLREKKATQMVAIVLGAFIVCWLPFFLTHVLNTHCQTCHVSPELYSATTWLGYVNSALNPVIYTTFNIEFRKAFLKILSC
# Protocol: as §1, §2, §3, §4, §5, §6, §7
# [2] = target: Alpha1A adrenergic receptor (Homo sapiens (Human), UniProt P35348); experiment: Secondary radioligand binding assay, Alpha1A; parameters: key to Ki Alpha1A: “—” indicates that a binding interaction was not detected
# Alpha1A adrenergic receptor, sequence (P35348 whole entry): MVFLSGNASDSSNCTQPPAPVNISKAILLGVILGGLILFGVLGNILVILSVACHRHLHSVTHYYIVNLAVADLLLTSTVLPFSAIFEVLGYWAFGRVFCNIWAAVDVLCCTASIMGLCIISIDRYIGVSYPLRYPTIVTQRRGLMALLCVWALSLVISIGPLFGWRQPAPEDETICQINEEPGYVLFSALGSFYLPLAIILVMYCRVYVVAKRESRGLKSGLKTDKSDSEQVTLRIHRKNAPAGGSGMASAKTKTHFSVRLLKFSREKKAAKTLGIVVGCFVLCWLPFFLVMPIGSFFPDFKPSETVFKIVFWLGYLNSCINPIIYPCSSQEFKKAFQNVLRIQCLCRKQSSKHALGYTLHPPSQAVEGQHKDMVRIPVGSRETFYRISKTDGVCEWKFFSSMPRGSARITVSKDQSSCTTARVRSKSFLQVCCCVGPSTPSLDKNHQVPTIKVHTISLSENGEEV
# From the text: as §8
# 5HT1d receptor = 5HT1d receptor (Homo sapiens (Human), UniProt P28221); experiment: Secondary radioligand binding assay, 5HT1d; parameters: key to Ki 5HT1d: “—” indicates that a binding interaction was not detected;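 note: competition binding against a radioligand on membranes from transfected cell lines, 1.5 h at room temperature, filter-retained radioactivity counted by liquid scintillation, total binding plotted versus log competitor concentration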
# 5HT1d receptor, sequence (P28221 whole entry): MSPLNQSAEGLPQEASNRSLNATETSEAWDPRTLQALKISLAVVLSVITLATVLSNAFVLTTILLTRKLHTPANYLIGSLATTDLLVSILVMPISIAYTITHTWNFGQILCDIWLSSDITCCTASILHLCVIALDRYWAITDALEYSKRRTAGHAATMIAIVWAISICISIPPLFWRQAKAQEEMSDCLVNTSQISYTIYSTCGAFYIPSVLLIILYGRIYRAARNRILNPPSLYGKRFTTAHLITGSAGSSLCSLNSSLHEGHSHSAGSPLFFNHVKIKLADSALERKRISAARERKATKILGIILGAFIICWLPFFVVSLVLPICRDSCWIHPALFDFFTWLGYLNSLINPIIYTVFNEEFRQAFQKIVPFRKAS
# Protocol: as §9, §10
# 5HT6 receptor = 5HT6 receptor (Homo sapiens (Human), UniProt P50406); experiment: Secondary radioligand binding assay, 5HT6; parameters: key: “—” indicates that a binding interaction was not detected;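 note: competition displacement of radioligand from membranes of transfected cell lines expressing the receptor, 1.5 h at room temperature, bound radioactivity counted by scintillation after filtration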
# 5HT6 receptor, sequence (P50406 whole entry): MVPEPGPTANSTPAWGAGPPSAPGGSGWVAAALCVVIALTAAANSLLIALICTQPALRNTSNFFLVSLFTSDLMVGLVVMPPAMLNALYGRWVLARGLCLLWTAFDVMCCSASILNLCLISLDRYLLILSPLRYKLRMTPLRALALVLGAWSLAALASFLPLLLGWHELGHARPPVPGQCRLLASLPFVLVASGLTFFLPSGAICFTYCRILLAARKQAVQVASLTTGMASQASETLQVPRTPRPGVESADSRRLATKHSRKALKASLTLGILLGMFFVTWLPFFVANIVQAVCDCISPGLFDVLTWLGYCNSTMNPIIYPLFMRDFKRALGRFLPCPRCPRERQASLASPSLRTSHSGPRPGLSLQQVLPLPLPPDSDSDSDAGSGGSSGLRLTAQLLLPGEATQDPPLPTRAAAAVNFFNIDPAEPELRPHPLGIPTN
# Protocol: as §9, §10
# 5HT7 receptor = 5HT7 receptor (Homo sapiens (Human), UniProt P34969); experiment: Secondary radioligand binding assay, 5HT7; parameters: key to Ki 5HT7: “—” indicates that a binding interaction was not detected;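 note: competition of test compound with radioligand for binding to membranes from transfected cell lines, 1.5 h incubation at room temperature, filter-bound radioactivity read by liquid scintillation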
# 5HT7 receptor, sequence (P34969 whole entry): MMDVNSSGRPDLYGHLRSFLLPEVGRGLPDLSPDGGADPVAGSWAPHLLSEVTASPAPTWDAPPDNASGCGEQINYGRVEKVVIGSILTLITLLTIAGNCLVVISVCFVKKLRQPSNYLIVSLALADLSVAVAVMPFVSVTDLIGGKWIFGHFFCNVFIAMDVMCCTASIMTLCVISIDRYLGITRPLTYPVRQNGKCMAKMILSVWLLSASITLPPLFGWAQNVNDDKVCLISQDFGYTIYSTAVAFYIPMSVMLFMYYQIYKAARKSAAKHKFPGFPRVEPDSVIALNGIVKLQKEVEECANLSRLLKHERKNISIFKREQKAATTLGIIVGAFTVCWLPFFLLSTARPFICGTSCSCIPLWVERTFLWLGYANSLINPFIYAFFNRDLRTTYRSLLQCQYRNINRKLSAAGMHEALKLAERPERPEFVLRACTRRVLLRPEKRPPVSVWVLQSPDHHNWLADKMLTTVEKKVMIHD
# Protocol: as §9, §10
# dopamine D5 receptor, sequence (P21918 whole entry): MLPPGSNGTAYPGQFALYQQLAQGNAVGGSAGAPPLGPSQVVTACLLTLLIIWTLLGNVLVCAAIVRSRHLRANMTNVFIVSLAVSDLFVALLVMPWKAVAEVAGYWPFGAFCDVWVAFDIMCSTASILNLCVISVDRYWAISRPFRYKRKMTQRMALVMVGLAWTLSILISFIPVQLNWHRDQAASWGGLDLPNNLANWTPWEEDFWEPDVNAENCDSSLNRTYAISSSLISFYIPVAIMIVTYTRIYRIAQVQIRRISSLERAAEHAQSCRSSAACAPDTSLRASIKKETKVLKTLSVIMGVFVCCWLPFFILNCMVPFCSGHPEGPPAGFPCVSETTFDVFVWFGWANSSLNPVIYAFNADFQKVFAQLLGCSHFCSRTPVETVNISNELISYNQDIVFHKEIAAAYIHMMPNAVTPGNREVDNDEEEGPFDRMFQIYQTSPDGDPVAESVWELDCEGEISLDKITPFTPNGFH
SMILES,Ki D5 (dopamine D5 receptor),Ki D2 (dopamine D2 receptor),Ki (5HT2b receptor),Ki D1 (dopamine D1 receptor),Ki 5HT3 (5HT3 receptor),Ki Alpha1B [1],Ki D3 (dopamine D3 receptor),Ki Alpha1A [2],Ki 5HT1d (5HT1d receptor),Ki 5HT6 (5HT6 receptor),Ki 5HT7 (5HT7 receptor),Ki (dopamine D3 receptor),Ki (5HT7 receptor),Ki 5HT2b (5HT2b receptor),Ki (dopamine D2 receptor),Ki (dopamine D1 receptor)
"O=C(CN1CCO[C@@H](COc2cccc(Cl)c2)C1)N1CCc2ccccc21 [Compound 22r, (R)-2-(2-((3-chlorophenoxy)methyl)morpholino)-1-(indolin-1-yl)ethanone]",—,—,2.36 µM,—,—,—,—,—,—,—,—,,,,,
"O=C(CN1CCO[C@H](COc2cccc(Cl)c2)C1)N1CCc2ccccc21 [Compound 22s, (S)-2-(2-((3-Chlorophenoxy)methyl)morpholino)-1-(indolin-1-yl)ethanone]",—,—,1.1 µM,—,—,—,—,—,—,—,—,,,,,
"COc1cccc(OC[C@@H]2CN(CC(=O)N3CCc4ccccc43)CCO2)c1 [Compound 24s, (S)-1-(Indolin-1-yl)-2-(2-((3-methoxyphenoxy)methyl)morpholino)ethanone]",—,—,1.65 µM,—,—,—,—,—,—,—,—,,,,,
"Cc1ncccc1OC[C@H]1CN(CCN2CCc3ccccc32)CCO1 [Compound 26r, (R)-4-(2-(Indolin-1-yl)ethyl)-2-(((2-methylpyridin-3-yl)oxy)methyl)morpholine]",—,—,3.17 µM,—,—,—,,—,—,—,,> 10 µM,> 10 µM,,,
"Cc1ncccc1OC[C@@H]1CN(CCN2CCc3ccccc32)CCO1 [Compound 26s, (S)-4-(2-(Indolin-1-yl)ethyl)-2-(((2-methylpyridin-3-yl)oxy)methyl)morpholine]",—,—,,—,—,—,—,—,—,—,—,,,—,,
"Clc1cncc(OC[C@H]2CN(CCN3CCc4ccccc43)CCO2)c1 [Compound 27r, (R)-2-(((5-Chloropyridin-3-yl)oxy)methyl)-4-(2-(indolin-1-yl)ethyl)morpholine]",—,—,2.56 µM,—,—,—,—,—,—,—,—,,,,,
"Clc1cncc(OC[C@@H]2CN(CCN3CCc4ccccc43)CCO2)c1 [Compound 27s, (S)-2-(((5-Chloropyridin-3-yl)oxy)methyl)-4-(2-(indolin-1-yl)ethyl)morpholine]",—,,,,—,—,—,—,—,—,—,,,—,> 10 µM,5.85 µM
"Cc1ccc(OC[C@H]2CN(CCN3CCc4ccccc43)CCO2)cn1 [Compound 28r, (R)-4-(2-(Indolin-1-yl)ethyl)-2-(((6-methylpyridin-3-yl)oxy)methyl)morpholine]",—,—,,—,—,—,—,—,—,—,—,,,—,,
"Cc1ccc(OC[C@@H]2CN(CCN3CCc4ccccc43)CCO2)cn1 [Compound 28s, (S)-4-(2-(Indolin-1-yl)ethyl)-2-(((6-methylpyridin-3-yl)oxy)methyl)morpholine]",—,—,,—,—,—,—,—,—,—,—,,,—,,
"Cc1ccnc(C)c1OC[C@H]1CN(CCN2CCc3ccccc32)CCO1 [Compound 29r, (R)-2-(((2,4-Dimethylpyridin-3-yl)oxy)methyl)-4-(2-(indolin-1-yl)ethyl)morpholine]",—,—,1.33 µM,—,—,—,—,—,—,—,—,,,,,
Cc1ncccc1OC[C@@H]1CN(CC(=O)N2c3ccccc3CC2C)CCO1.Cl (some centres unmarked) [Compound 60],—,—,4.61 µM,,—,—,—,—,—,—,—,,,,,> 10 µM
Cc1ncccc1OC[C@@H]1CN(CC(=O)N2c3ccccc3C[C@H]2C)CCO1 [Compound 61],—,—,,,—,—,—,—,—,—,—,,,—,,> 10 µM
Cc1ncccc1OC[C@H]1CN(CC(=O)N2c3ccccc3CC2C)CCO1 (some centres unmarked) [Compound 62],—,—,5.18 µM,—,—,—,—,—,—,—,—,,,,,
